Values of other authors as cited in patent US9173857B2, “Controlled dose drug delivery system” (Shire LLC, priority 2006, dated 2015).

How the values were obtained:
[1] = pulsatile capsule with release after a nominal 5-hr period; majority of subjects
[2] = wax-surfactant coating, higher coating level (60%)

| SMILES | amounts of the drug observed in the blood [1] | lag time of drug release [2] | time required for complete release after the lag time [2] |
| --- | --- | --- | --- |
| C[C@H](CS)C(=O)N1CCC[C@H]1C(=O)O [captopril] | no measurable amounts |  |  |
| Cn1c(=O)c2[nH]cnc2n(C)c1=O [theophylline] |  | two-hour | three hours |
